Measured values: patent US12350252B2, “Water-soluble cannabinoid formulations and methods of their making” (SOLUSCIENCE, LLC, priority 2019, dated 2025)

Assay: Accelerated stability study of 2% CBD colloidal dispersion (cannabinoid profile, appearance, pH, microbial growth)
Assay type: physicochemical
Protocol: The solid dispersion included 20% CBD, 75% of Poloxamer 407 and 5% ascorbic acid was dissolved in distilled water to produce the homogenic, stable colloidal dispersion of cannabidiol at 2% (20 mg/mL) by weight of the formulation.

[1] = Day # 0, content in colloidal dispersion of cannabidiol at 2% (20 mg/mL)
[2] = Day # 90, stored at 100° F. (38° C.), content in colloidal dispersion of cannabidiol at 2%

## C=C(C)[C@@H]1CCC(C)=C[C@H]1c1c(O)cc(CCCCC)cc1O [Cannabidiol (CBD), Cannabidiol]
[1]
  Cannabinoid profile Result: 20.2 mg/g
  Cannabinoid profile Result (%): 2.02%
[2]
  Cannabinoid profile Result: 21.9 mg/g
  Cannabinoid profile Result (%): 2.19%

## CCCCCc1cc(O)c(C/C=C(\C)CCC=C(C)C)c(O)c1 [Cannabigerol (CBG), Cannabigerol]
[1]
  Cannabinoid profile Result: 0.3 mg/g
  Cannabinoid profile Result (%): 0.03%

## CCCCCc1cc(O)c2c(c1)OC(C)(C)c1ccc(C)cc1-2 [Cannabinol (CBN), Cannabinol]
[1]
  Cannabinoid profile Result: 0.3 mg/g
  Cannabinoid profile Result (%): 0.03%
